Test results taken from patent US6337318B1, “Sustained GnRH peptide-release formulation” (Peptech, Ltd., priority 1996, dated 2002).
Each block holds one molecule with its values, some of them ahead of it.

Tests used:
prostate cancer in rats = settings: controlled dose over 30 days vs equivalent or double daily doses of free peptide; cited from earlier work
male dogs = assay: testicular size in male dogs implanted with rods; assay type: in vivo, dog; settings: implanted rods of 94% stearin, 5% deslorelin, 1% lecithin
Procedure: (§1) Stearin (supplied as free flowing beads of 1 mm or less in diameter made by Vandenberg Foods) and lecithin (supplied as a deep brown viscous syrup from R P Schearer) were hand mixed using a spatula in a small beaker. The deslorelin was then added and thoroughly mixed into the excipients. The mixed material was transferred to the barrel of a ram extruder that has a 1 mm nozzle attached and is equilibrated to 55° C. The ram extrusion pressure is 40 psi. The ram was attached and pressure applied until the product began to extrude. At this point the pressure was backed off and the product allowed to reach 55° C. The product was then extruded-3 g over a 30 second period. The resulting extrudate was allowed to cool and then broken up and re-extruded through a 1 mm nozzle. This step was included to ensure uniformity of content throughout the matrix. The 1 mm nozzle was then replaced with a 2.3 mm diameter nozzle. The same product temperature equilibration procedure was conducted prior to extrusion. The product was then extruded and after cooling the long rods produced could be sectioned into lengths of the required weight.
(§2) The rods produced were implanted into male dogs using standard techniques.

plasma testosterone = assay: suppression of plasma testosterone levels in implanted dogs; assay type: in vivo, dog; settings: 5% deslorelin; for duration of suppression of testosterone levels: rods of 93% stearin, 2% lecithin, 0.5, 1 or 2 x 120 mg rod containing 6 mg deslorelin
Procedure: as §1, §2
Stearin beads (ADMUL PO 58 from Quest International Australasia Limited) and lecithin (Topcithin 300, Bronson & Jacobs, Australia) were hand mixed using a spatula in a small beaker. The deslorelin was then added and thoroughly mixed into the excipients. The material was transferred to the barrel of a ram extruder that has a 1 mm nozzle attached and is equilibrated to 55.8° C. The ram extrusion pressure is 40 psi. The ram was then attached and pressure applied until the product began to extrude. At this point the pressure was backed off and the product allowed to reach 55.8° C. The product was then extruded-3 g over a 30 second period. The resulting extrudate was allowed to cool and then broken up before re-extruding the mixed granulation through the 1 mm nozzle at 58.3° C. and into an injectable mould that generates a finished rod product that is 2.3 mm in diameter and approximately 25 mm long. […]

[1] = in vitro release of deslorelin from the rods; assay type: physicochemical; settings: rods of 94% stearin, 5% deslorelin (on an active basis), 1% lecithin
Procedure: Typically, the formulation of the first aspect will release the peptide agonist or analogue, in vitro, into phosphate buffered saline (PBS: pH 7.3, prepared by dissolving 8.00 g of sodium chloride, 1.00 g di-sodium hydrogen phosphate anhydrous, 0.40 g sodium dihydrogen phosphate dihydrate (0.31 g if anydrous), and 0.05 g sodium azide in 1 litre of deionised water), at 37° C. at a rate of about 2-350 μg/day for at least 200 days but preferably for at least 300 days.
as §1, with “The same product temperature equilibration procedure was conducted prior to extrusion. The product was then extruded and after cooling the long rods produced could be sectioned into lengths of the required weight.” left out

estradiol levels = settings: female patients; provided peptide delivered so as to maintain a constant minimum blood level; cited from earlier work
[2] = tested on: advanced prostatic cancer; settings: monthly subcutaneous injections, advanced prostatic cancer patients; cited from earlier work

Molecule: 5-oxo-L-prolyl-L-histidyl-L-tryptophyl-L-seryl-L-tyrosyl-D-tryptophyl-L-leucyl-L-arginyl-L-prolylglycinamide. [triptorelin]
suppression of prostate tumour weight, microencapsulated form versus daily subcutaneous free peptide (prostate cancer in rats): more effective | suppression of serum testosterone levels, microencapsulated form versus daily subcutaneous free peptide (prostate cancer in rats): more effective

duration of release of deslorelin from the rods in vitro [1]: up to 250 days
Molecule: CCNC(=O)[C@@H]1CCCN1C(=O)[C@H](CCCN=C(N)N)NC(=O)[C@H](CC(C)C)NC(=O)[C@@H](Cc1c[nH]c2ccccc12)NC(=O)[C@H](Cc1ccc(O)cc1)NC(=O)[C@H](CO)NC(=O)[C@H](Cc1c[nH]c2ccccc12)NC(=O)[C@H](Cc1cnc[nH]1)NC(=O)[C@@H]1CCC(=O)N1 [deslorelin, [6-D-tryptophan-9-(N-ethyl-L prolinamide)-10-deglycinamide]]
duration of continued decline in testicular size (male dogs): at least 5 months | duration of suppression of testosterone levels (plasma testosterone; bitches): at least 5 months | duration of suppression of testosterone levels (plasma testosterone; dogs (male)): ≥ 12 months | duration of suppression of plasma testosterone levels (plasma testosterone; male dogs, implanted rods of 94% stearin, 1% lecithin): at least 4 months | suppression of estradiol levels (estradiol levels): effective

Molecule: CC(C)C[C@H](NC(=O)[C@@H](COC(C)(C)C)NC(=O)[C@H](Cc1ccc(O)cc1)NC(=O)[C@H](CO)NC(=O)[C@H](Cc1c[nH]c2ccccc12)NC(=O)[C@H](Cc1cnc[nH]1)NC(=O)[C@@H]1CCC(=O)N1)C(=O)N[C@@H](CCCNC(=N)N)C(=O)N1CCC[C@H]1C(=O)NNC(N)=O [goserelin, 3-[5 oxo-L-prolyl-L-tryptophyl-L-seryl-L-tyrosyl-(3-O-tert-butyl)-D-seryl-L-leucyl-L-arginyl-L-prolyl] cabazamide acetate.]
efficacy compared with orchiectomy [2]: as effective as orchiectomy | tolerability [2]: well tolerated
